In US20250152585A1, “PHARMACEUTICAL COMPOUND” (Duke Street Bio Limited, priority 2022, published 2025):
Where two headings read alike, the source gives them in different places. Blank lines part the entries; values can stand above or below the compound they belong to.

Tests used:
[1] = molecular target: T1, N-terminally FLAG-tagged PARP2 (amino acids 1-583) (Homo sapiens, UniProt Q9UGN5); experiment: PARP2 probe displacement HTRF assay; format: binding; settings: binned Kd
T1 construct: N-terminally FLAG-tagged PARP2 (amino acids 1-583)
Procedure: Data analysis was performed identical as for PARP1.

[2] = molecular target: T2, full length N-terminally FLAG-tagged PARP1 (Homo sapiens, UniProt P09874); experiment: PARP1 biochemical DELFIA assay (auto-PARylation); parameters: recombinant full length human N-terminally FLAG-tagged PARP1
[3] = molecular target: T3, PARP2 (Homo sapiens, UniProt Q9UGN5); experiment: NanoBRET cellular target occupancy assay, PARP2; format: cell-based; settings: HEK293 cells transiently transfected with PARP2-NanoLuc fusion; tracer 2 nM; 2 hours at 37° C.; Kd by Cheng-Prussoff
T3 construct: host or cells: HEK293
From the text: NanoBRET Cellular Target Occupancy Assay

[4] = molecular target: T4, PARP1 (Homo sapiens, UniProt P09874); experiment: NanoBRET cellular target occupancy assay, PARP1; format: cell-based; settings: for Kd: HEK293 cells transiently transfected with PARP1-NanoLuc fusion, tracer 11 nM, 2 hours at 37° C., Kd by Cheng-Prussoff; for Selectivity: NanoBRET, PARP1 over PARP2, Kd (PARP2)/Kd (PARP1)
T4 construct: host or cells: HEK293

[5] = molecular target: T2, full length N-terminally FLAG-tagged PARP1; experiment: PARP1 probe displacement HTRF assay; settings: for Selectivity: PARP1 over PARP2, ratio Kd (PARP2)/Kd (PARP1); for Kd: binned Kd
[6] = binned IC50, PARP1 biochemical DELFIA assay
[7] = read-out: PARP1 HTRF, PARP1 probe displacement HTRF
[8] = binned IC50, biochemical auto-PARylation assay
[9] = read-out: PARP1 HTRF, probe displacement HTRF

T1 sequence (Q9UGN5 whole entry, the tested form may be a part): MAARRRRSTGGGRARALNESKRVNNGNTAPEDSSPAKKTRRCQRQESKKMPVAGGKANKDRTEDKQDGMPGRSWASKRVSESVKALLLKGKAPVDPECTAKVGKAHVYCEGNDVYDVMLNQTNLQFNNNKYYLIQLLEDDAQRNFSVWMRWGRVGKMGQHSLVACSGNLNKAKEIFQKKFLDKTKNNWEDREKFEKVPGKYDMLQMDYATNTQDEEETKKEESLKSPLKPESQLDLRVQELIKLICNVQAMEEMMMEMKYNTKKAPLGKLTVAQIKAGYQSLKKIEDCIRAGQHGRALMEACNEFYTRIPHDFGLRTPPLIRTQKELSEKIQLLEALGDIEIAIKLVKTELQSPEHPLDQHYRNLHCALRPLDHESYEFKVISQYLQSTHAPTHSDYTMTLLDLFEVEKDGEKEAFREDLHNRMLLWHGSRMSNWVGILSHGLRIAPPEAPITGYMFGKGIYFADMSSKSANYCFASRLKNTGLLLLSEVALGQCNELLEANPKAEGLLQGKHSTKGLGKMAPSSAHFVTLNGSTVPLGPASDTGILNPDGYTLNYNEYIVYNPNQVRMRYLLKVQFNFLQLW
T3 sequence (Q9UGN5 whole entry, the tested form may be a part): as above
T2 sequence (P09874 whole entry, the tested form may be a part): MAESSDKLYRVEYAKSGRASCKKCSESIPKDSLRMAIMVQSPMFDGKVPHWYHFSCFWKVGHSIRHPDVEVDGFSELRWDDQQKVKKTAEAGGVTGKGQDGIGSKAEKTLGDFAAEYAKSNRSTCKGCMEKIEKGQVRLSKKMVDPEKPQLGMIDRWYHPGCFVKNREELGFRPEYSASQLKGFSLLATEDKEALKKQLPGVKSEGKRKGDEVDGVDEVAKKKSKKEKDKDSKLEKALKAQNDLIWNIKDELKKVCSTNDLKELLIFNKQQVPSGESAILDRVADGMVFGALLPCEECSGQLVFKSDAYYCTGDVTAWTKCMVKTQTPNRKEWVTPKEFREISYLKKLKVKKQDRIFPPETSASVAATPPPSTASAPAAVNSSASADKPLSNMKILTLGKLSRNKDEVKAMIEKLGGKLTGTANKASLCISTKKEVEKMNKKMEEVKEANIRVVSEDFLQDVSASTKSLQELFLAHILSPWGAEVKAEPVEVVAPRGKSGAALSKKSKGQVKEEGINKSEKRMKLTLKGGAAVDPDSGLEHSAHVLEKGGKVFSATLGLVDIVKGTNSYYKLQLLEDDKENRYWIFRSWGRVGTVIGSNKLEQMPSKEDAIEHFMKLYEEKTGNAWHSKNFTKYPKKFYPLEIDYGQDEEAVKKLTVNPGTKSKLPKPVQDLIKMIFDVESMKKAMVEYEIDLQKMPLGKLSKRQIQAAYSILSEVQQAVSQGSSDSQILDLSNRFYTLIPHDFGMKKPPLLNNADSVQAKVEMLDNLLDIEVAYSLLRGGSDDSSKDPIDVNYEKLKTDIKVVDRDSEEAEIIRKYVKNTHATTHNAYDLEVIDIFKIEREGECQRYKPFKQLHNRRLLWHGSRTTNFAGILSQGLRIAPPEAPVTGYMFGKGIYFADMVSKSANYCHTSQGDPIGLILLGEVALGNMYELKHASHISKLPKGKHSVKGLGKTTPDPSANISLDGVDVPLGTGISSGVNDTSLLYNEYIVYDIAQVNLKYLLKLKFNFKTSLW
T4 sequence (P09874 whole entry, the tested form may be a part): as above

SMILES: CCc1ccc(C2CCN(C3CCN(c4ccc(C(=O)NC)nc4Cl)CC3)C2)[nH]c1=O (racemic) [Compound 144rac]
Kd ([1]; PARP2 probe displacement HTRF): 1000 to 10000 nM
IC50 [2, 6]: < 10 nM
Kd [3]: > 10000 nM
Kd [4]: < 10 nM
Selectivity [4]: +++ (+++ indicate a value of at least 100)
Selectivity ([5]; probe displacement HTRF): +++ (+++ indicate a value of at least 100)
Kd [5, 7]: < 10 nM

SMILES: CNC(=O)c1ccc(N2CCC(N3CCC(c4nc5ccccc5c(=O)[nH]4)C3)CC2)c(F)n1 (racemic) [Compound 157rac]
Kd ([1]; PARP2 probe displacement HTRF): 1000 to 10000 nM
IC50 [2, 6]: < 10 nM
Kd [3]: > 10000 nM
Kd [4]: < 10 nM
Selectivity [4]: +++ (+++ indicate a value of at least 100)
Selectivity ([5]; probe displacement HTRF): +++ (+++ indicate a value of at least 100)
Kd [5, 7]: < 10 nM

SMILES: CNC(=O)c1ccc(N2CCC(N3CCC(c4cc5ccc(F)cc5c(=O)[nH]4)C3)CC2)c(F)n1 (racemic) [Compound 174rac]
Kd ([1]; PARP2 probe displacement HTRF): 100 to 1000 nM
IC50 [2, 6]: < 10 nM
Kd [3]: 1000 to 10000 nM
Kd [4]: < 10 nM
Selectivity [4]: +++ (+++ indicate a value of at least 100)
Selectivity ([5]; probe displacement HTRF): +++ (+++ indicate a value of at least 100)
Kd [5, 7]: < 10 nM

SMILES: CNC(=O)c1ccc(N2CCC(N3CCC(c4cc5ccc(F)cc5c(=O)[nH]4)C3)CC2)c(Cl)n1 (racemic) [Compound 175rac]
Kd ([1]; PARP2 probe displacement HTRF): 100 to 1000 nM
IC50 [2, 6]: < 10 nM
Kd [3]: 1000 to 10000 nM
Kd [4]: < 10 nM
Selectivity [4]: +++ (+++ indicate a value of at least 100)
Selectivity ([5]; probe displacement HTRF): +++ (+++ indicate a value of at least 100)
Kd [5, 7]: < 10 nM

SMILES: CCc1cc(Cl)c(C2CCN(C3CCN(c4ccc(C(=O)NC)nc4)CC3)C2)[nH]c1=O (racemic) [Compound 255rac]
Kd ([1]; probe displacement HTRF): 100 to 1000 nM
IC50 [2, 8]: < 10 nM
Kd [3]: 1000 to 10000 nM
Kd [4]: < 10 nM
Selectivity [4]: +++ (+++ indicate a value of at least 100)
Selectivity ([5]; probe displacement HTRF): ++ (++ indicates a value of 50 to less than 100)
Kd [5, 9]: < 10 nM

SMILES: CNC(=O)c1ccc(N2CCC(N3CCC(c4cc5ncc(F)cc5c(=O)[nH]4)C3)CC2)c(F)n1 (racemic) [Compound 324rac, 6-fluoro-5-(4-(3-(3-fluoro-5-oxo-5,6-dihydro-1,6-naphthyridin-7-yl)pyrrolidin-1-yl)piperidin-1-yl)-N-methylpicolinamide]
Kd ([1]; probe displacement HTRF): 100 to 1000 nM
IC50 [2, 8]: < 10 nM
Kd [3]: 1000 to 10000 nM
Kd [4]: < 10 nM
Selectivity [4]: +++ (+++ indicate a value of at least 100)
Kd ([5]; PARP1 HTRF, probe displacement HTRF): < 10 nM
Selectivity ([5]; probe displacement HTRF): +++ (+++ indicate a value of at least 100)

Further lines, with some results ahead:

Kd ([1]; PARP2 probe displacement HTRF): < 10 nM
IC50 [2, 6]: < 10 nM
Kd [3]: 100 to 1000 nM
Kd [4]: 10 to 100 nM
Selectivity ([5]; probe displacement HTRF): − (− indicates a value of less than 10)
Kd [5, 7]: < 10 nM
SMILES: CNC(=O)c1ccc(N2CCC(N3CCC(c4nc5[nH]cc(C(F)(F)F)c5c(=O)[nH]4)C3)CC2)cn1 (racemic) [Compound 150rac]
Selectivity [4]: + (+ indicates a value of 10 to less than 50)

Kd ([1]; PARP2 probe displacement HTRF): < 10 nM
IC50 [2, 6]: < 10 nM
Kd [3]: 10 to 100 nM
Kd [4]: < 10 nM
Selectivity ([5]; probe displacement HTRF): − (− indicates a value of less than 10)
Kd [5, 7]: < 10 nM
SMILES: CNC(=O)c1ccc(N2CCC(N3CCC(c4nc5c(c(C(F)(F)F)cn5C)c(=O)[nH]4)C3)CC2)cn1 (racemic) [Compound 170rac]
Selectivity [4]: + (+ indicates a value of 10 to less than 50)

Kd ([1]; probe displacement HTRF): 100 to 1000 nM
IC50 [2, 8]: < 10 nM
Kd [3]: 100 to 1000 nM
Kd [4]: < 10 nM
Kd [5, 9]: < 10 nM
SMILES: CNC(=O)c1ccc(N2CCC(N3CCC(c4[nH]c(=O)c5ccccc5c4F)C3)CC2)cn1 (racemic) [Compound 258rac]
Selectivity [4]: +++ (+++ indicate a value of at least 100)
Selectivity ([5]; probe displacement HTRF): +++ (+++ indicate a value of at least 100)

Kd ([1]; probe displacement HTRF): 100 to 1000 nM
IC50 [2, 8]: < 10 nM
Kd [3]: 100 to 1000 nM
Kd [4]: < 10 nM
Kd [5, 9]: < 10 nM
SMILES: CNC(=O)c1ccc(N2CCC(N3CCC(c4cc5ncc(F)cc5c(=O)[nH]4)C3)CC2)cn1 (racemic) [Compound 315rac]
Selectivity [4]: +++ (+++ indicate a value of at least 100)
Selectivity ([5]; probe displacement HTRF): +++ (+++ indicate a value of at least 100)
